From patent publication US9951049B2, “Pyrazole linked benzimidazole conjugates and a process for preparation thereof” (Council of Scientific & Industrial Reseach, priority 2014, dated 2018)

How the values were obtained:
[1] = tested on: fifty six human tumor cell lines; assay: NCI human tumor cell line screen (48 h, SRB), all cell lines; details: various cell lines
Colon cancer cell lines = assay: NCI SRB screen, Colon panel average; details: Homo sapiens, 48 h, read-out: Log10 GI50 (converted)
Renal cancer cell lines = assay: NCI SRB screen, Renal panel average; details: Homo sapiens, 48 h, read-out: Log10 GI50 (converted)
[2] = tested on: Ovarian cancer cell lines; assay: NCI SRB screen, Ovarian panel average; details: Homo sapiens, 48 h, read-out: Log10 GI50 (converted)
Breast Cancer cell lines = assay: NCI SRB screen, Breast Cancer panel average; details: Homo sapiens, 48 h, read-out: Log10 GI50 (converted)
Melanoma cell lines = assay: NCI SRB screen, Melanoma panel average; details: Homo sapiens, 48 h, read-out: Log10 GI50 (converted)
[3] = tested on: Non-small-cell lung cancer cell lines; assay: NCI SRB screen, Non-small-cell lung panel average; details: Homo sapiens, 48 h, read-out: Log10 GI50 (converted)
Leukemia cell lines = assay: NCI SRB screen, Leukemia panel average; details: Homo sapiens, 48 h, read-out: Log10 GI50 (converted)
[4] = tested on: Prostate cancer cell lines; assay: NCI SRB screen, Prostate panel average; details: Homo sapiens, 48 h, read-out: Log10 GI50 (converted)
CNS cancer cell lines = assay: NCI SRB screen, CNS panel average; details: Homo sapiens, 48 h, read-out: Log10 GI50 (converted)

COc1ccc(-c2cc(-c3nc4cc(F)ccc4[nH]3)[nH]n2)c(OC)c1 [7e, 2-(3-(2,4-dimethoxyphenyl)-1H-pyrazol-5-yl)-5-fluoro-1H-benzo[d]imidazole]
mean graph pattern: profile of activity and selectivity [1]: an interesting profile of activity and selectivity

COc1ccc(-c2cc(-c3nc4cc(Cl)ccc4[nH]3)[nH]n2)c(OC)c1 [8e, 5-chloro-2-(3-(2,4-dimethoxyphenyl)-1H-pyrazol-5-yl)-1H-benzo[d]imidazole]
mean graph pattern: profile of activity and selectivity [1]: an interesting profile of activity and selectivity

COc1ccc(-c2cc(-c3nc4cc(Cl)c(Cl)cc4[nH]3)[nH]n2)c(OC)c1 [10e, 5,6-dichloro-2-(3-(2,4-dimethoxyphenyl)-1H-pyrazol-5-yl)-1H-benzo[d]imidazole]
mean graph pattern: profile of activity and selectivity [1]: an interesting profile of activity and selectivity

COc1ccc(-c2cc(-c3nc4cc(C(F)(F)F)ccc4[nH]3)[nH]n2)c(OC)c1 [11e, 2-(3-(2,4-dimethoxyphenyl)-1H-pyrazol-5-yl)-5-(trifluoromethyl)-1H-benzo[d]imidazole]
mean graph pattern: profile of activity and selectivity [1]: an interesting profile of activity and selectivity

COc1ccc(-c2cc(-c3nc4cc([N+](=O)[O-])ccc4[nH]3)[nH]n2)c(OC)c1 [12e, 2-(3-(2,4-dimethoxyphenyl)-1H-pyrazol-5-yl)-5-nitro-1H-benzo[d]imidazole]
mean graph pattern: profile of activity and selectivity [1]: an interesting profile of activity and selectivity

COc1ccc(-c2cc(-c3nc4cc(Cl)c(F)cc4[nH]3)[nH]n2)c(OC)c1 [13e, 5-chloro-2-(3-(2,4-dimethoxyphenyl)-1H-pyrazol-5-yl)-6-fluoro-1H-benzo[d]imidazole]
mean graph pattern: profile of activity and selectivity [1]: an interesting profile of activity and selectivity

COC(=O)Nc1nc2ccc(C(=O)c3cccs3)cc2[nH]1 [Nocodazole, reference compound]
GI50 (Colon cancer cell lines): 0.0178 µM | GI50 (Renal cancer cell lines): 0.107 µM | GI50 [2]: 0.145 µM | GI50 (Breast Cancer cell lines): 0.155 µM | GI50 (Melanoma cell lines): 0.0224 µM | GI50 [3]: 0.0204 µM | GI50 (Leukemia cell lines): 0.0123 µM | GI50 [4]: 0.0145 µM | GI50 (CNS cancer cell lines): 0.0229 µM
